Data as given in ChEMBL document CHEMBL5241090, “A comprehensive overview of β-carbolines and its derivatives as anticancer agents” (Eur J Med Chem, 2021).
In brackets after ≈: the same amount, converted by molar mass.

Key:
Type in all cases: functional, cell-based
[1] = system: SK-OV-3; experiment: Antiproliferative activity against human SK-OV-3 cells
[2] = system: A2780; experiment: Antiproliferative activity against human A2780 cells
[3] = Cytotoxicity against mouse P388 cells
[4] = system: MCF7; experiment: Cytotoxicity against human MCF7 cells incubated for 48 hrs by neutral red dye based assay; conditions: MCF7, 48 h
[5] = system: A549; experiment: Cytotoxicity against human A549 cells incubated for 48 hrs by neutral red dye based assay; conditions: A549, 48 h
[6] = system: HCT-116; experiment: Cytotoxicity against human HCT-116 cells incubated for 48 hrs by neutral red dye based assay; conditions: HCT-116, 48 h
[7] = system: L5178Y; experiment: Cytotoxicity against mouse L5178Y cells incubated 72 hrs; conditions: 72 h
[8] = system: L1210; experiment: Cytotoxicity against mouse L1210 cells
[9] = system: KB; experiment: Cytotoxicity against human Vincristine-resistant KB cells; conditions: pooled result: one value given for 6 cell lines, strains, targets or settings
[10] = system: HL-60; experiment: Cytotoxicity against human HL-60 cells; conditions: Homo sapiens, HL-60; read-out: IC50
[11] = system: A549; experiment: Cytotoxicity against human A549 cells
[12] = system: NCI-H1299; experiment: Cytotoxicity against human NCI-H1299 cells
[13] = system: HCT-116; experiment: Cytotoxicity against human HCT-116 cells
[14] = system: Panel NCI-60 (60 carcinoma cell lines); experiment: Cytotoxicity against human Panel NCI-60 (60 carcinoma cell lines)
[15] = system: CNE-2; experiment: Cytotoxicity against human CNE-2 cells incubated for 48 hrs by MTT assay; conditions: CNE-2, 48 h
[16] = system: HepG2; experiment: Cytotoxicity against human HepG2 cells after 48 hrs incubation by SRB assay; conditions: HepG2, 48 h
[17] = system: Hep 3B2; experiment: Cytotoxicity against human Hep3B cells after 48 hrs incubation by SRB assay
[18] = system: HeLa; experiment: Cytotoxicity against human HeLa cells
[19] = system: KB; experiment: Cytotoxicity against human KB cells; conditions: Homo sapiens, KB; read-out: IC50

Question: Which IC50 [1] does the source give for `C=Cc1ncc(OC)c2c1[nH]c1c(OC)cccc12` here?
Answer: 11.9 µg/mL

Question: And the IC50 [2]?
Answer: 2.02 µg/mL

Question: With `C=Cc1nccc2c1[nH]c1c(O)cccc12` as the compound, how does the IC50 [3] read?
Answer: 0.1 µg/mL (≈ 0.476 µM)

Question: Which IC50 [3] does the source give for `C1=C\CCCCN(CCc2nccc3c2[nH]c2ccccc23)CCCC/1` [MANZAMINE C] here?
Answer: 3 µg/mL (≈ 8.63 µM)

Question: Which IC50 [4] does the source give for `Nc1nccc(-c2nccc3c2[nH]c2ccccc23)n1` [ANNOMONTINE] here?
Answer: 1.21 µg/mL (≈ 4.63 µM)

Question: What about the IC50 [5] of the same compound?
Answer: 1.09 µg/mL (≈ 4.17 µM)

Question: And the IC50 [6]?
Answer: 0.42 µg/mL (≈ 1.61 µM)

Question: Which IC50 [7] does the source give for `Cn1c2cnccc2c2c(Br)c(O)ccc21` here?
Answer: 1.8 µg/mL (≈ 6.5 µM)

Question: What about the IC50 [8] of the same compound?
Answer: 2.4 µg/mL (≈ 8.66 µM)

Question: With `COc1ccc2c3cc[n+]([O-])c4ccc(=O)n(c2c1)c34` as the compound, how does the IC50 [3] read?
Answer: 3.8 µg/mL (≈ 14.3 µM)

Question: And the IC50 [9]?
Answer: 3.8 µg/mL (≈ 14.3 µM)

Question: For `CN[C@H](CSC)c1nccc2c1[nH]c1ccc(O)c(Br)c12` [EUDISTOMIDIN C], which IC50 [7] is on record?
Answer: 0.42 µg/mL (≈ 1.15 µM)

Question: With `COc1ccc2c(c1)NC1C2CCN2C(=O)[C@]34C5Nc6cc(OC)ccc6C5CCN3[C@]12C4(C)C` (stereo partly drawn) as the compound, how does the IC50 [10] read?
Answer: 5.8 µM

Question: Which results are given for `CC(=O)c1nc(C(=O)NCCc2ccc(O)cc2)cc2c1[nH]c1ccccc12`?
Answer: IC50 [11]: 37.9 µM; IC50 [12]: 37.9 µM; IC50 [13]: 37.9 µM

Question: With `COc1cccc2c1C(=O)c1c(O)c3c(c(O)c1C2=O)C[C@@](O)(C(=O)CO)C[C@@H]3O[C@H]1C[C@H](N)[C@H](O)[C@H](C)O1` [DOXORUBICIN] as the compound, how does the IC50 [13] read?
Answer: 0.39 µM

Question: For `COc1ccc2c3c([nH]c2c1)-c1c(C(=O)c2ncc4ccccc4n2)ccn1CC3`, which IC50 [10] is on record?
Answer: 13.6 µM

Question: With `COc1ccc(-c2nc(-c3nc4ccc(OC)cc4[nH]3)cc3c2[nH]c2ccccc23)cc1` as the compound, how does the IC50 [14] read?
Answer: 0.3 µM

Question: For `Fc1ccc(-c2nc(-c3nc4ccc(Cl)cc4[nH]3)cc3c2[nH]c2ccccc23)cc1`, which IC50 [14] is on record?
Answer: 0.3 µM

Question: With `COc1c(O)c(=O)n2c3ccccc3c3ccnc1c32` as the compound, how does the IC50 [15] read?
Answer: 7.96 µg/mL (≈ 29.9 µM)

Question: For `Nc1nccc(-c2nccc3c2[nH]c2c([C@@H]4c5ccccc5N=C5[C@@H](O)CCN54)c(O)ccc23)n1`, which IC50 [11] is on record?
Answer: 55.7 µM

Question: And the IC50 [10]?
Answer: 39 µM

Question: Which results are given for `COc1cnc(C(=O)[C@H](CC(=O)c2nccc3c2[nH]c2ccccc23)OC)c2[nH]c3ccccc3c12`?
Answer: IC50 [16]: 43.9 µM; IC50 [17]: 18.6 µM

Question: Which IC50 [10] does the source give for `COc1ccc2c3c([nH]c2c1)[C@]1(NCC3)C(C)=C(C)c2nc3ccccc3c(=O)n21` here?
Answer: 9.4 µM

Question: Which IC50 [1] does the source give for `C=Cc1ncc(OC)c2c1[nH]c1c(O)cccc12` here?
Answer: 16.3 µM

Question: What about the IC50 [2] of the same compound?
Answer: 8.47 µM

Question: Which results are given for `CNC(=O)CCCc1nccc2c1[nH]c1ccccc12`?
Answer: IC50 [4]: 3.5 µg/mL (≈ 13.1 µM); IC50 [5]: 2.15 µg/mL (≈ 8.04 µM); IC50 [6]: 0.67 µg/mL (≈ 2.51 µM)

Question: With `COc1ccc(CCNC(=O)c2cc3c([nH]c4ccccc43)c(C(C)=O)n2)cc1` [MARINACARBOLINE A] as the compound, how does the IC50 [11] read?
Answer: 24.4 µM

Question: What about the IC50 [12] of the same compound?
Answer: 24.4 µM

Question: What about the IC50 [13] of the same compound?
Answer: 24.4 µM

Question: For `O[C@]12C=C(C3NCCc4c3[nH]c3ccccc43)[C@@H]3CCN(CCCC/C=C\CC1)C[C@@]31CC/C=C\CCCCN[C@H]12` (stereo partly drawn), which IC50 [8] is on record?
Answer: 1.3 µg/mL (≈ 2.34 µM)

Question: Which IC50 [14] does the source give for `COc1ccc(-c2nc(-c3nc4ccc(F)cc4[nH]3)cc3c2[nH]c2ccccc23)cc1` here?
Answer: 0.3 µM

Question: For `C1=C\CC[C@]23CN4CCCC/C=C\CC[C@@]5(O[C@H]5[C@@H](c5nccc6c5[nH]c5ccccc56)[C@@H]2CC4)[C@@H]3NCCCC/1` [MANZAMINE B], which IC50 [3] is on record?
Answer: 6 µg/mL (≈ 10.9 µM)

Question: With `COc1c(OC)c2nccc3c4ccccc4n(c1=O)c23` [4,5-DIMETHOXYCANTHIN-6-ONE] as the compound, how does the IC50 [15] read?
Answer: 9.86 µg/mL (≈ 35.2 µM)

Question: Which IC50 [11] does the source give for `COc1ccccc1-c1c(-c2ccccc2)ncc2[nH]c3ccccc3c12` here?
Answer: 8.2 µM

Question: And the IC50 [18]?
Answer: 20.8 µM

Question: With `COc1cc(-c2nc(C(=O)N[C@@H](Cc3c[nH]c4ccccc34)C(=O)N[C@@H](Cc3c[nH]c4ccccc34)C(=O)N[C@@H](CCSC)C(=O)OCc3ccccc3)cc3c2[nH]c2ccccc23)ccc1O` as the compound, how does the IC50 [10] read?
Answer: 16 µM

Question: Which IC50 [15] does the source give for `O=c1ccc2nccc3c4cccc(O)c4n1c23` here?
Answer: 13.4 µg/mL (≈ 56.9 µM)

Question: Which IC50 [19] does the source give for `CC(C)CC(N)c1nccc2c1[nH]c1cc(Br)ccc12` (stereo not drawn) [EUDISTALBIN A] here?
Answer: 3.2 µg/mL (≈ 9.63 µM)

Question: What does the source list for `COc1cnc(C(=O)[C@@H](Cc2nccc3c2[nH]c2ccccc23)OC)c2[nH]c3ccccc3c12`?
Answer: IC50 [16]: 33.9 µM; IC50 [17]: > 50 µM

Question: What does the source list for `CC(=O)c1nc(C(=O)NCCc2ccccc2)cc2c1[nH]c1ccccc12`?
Answer: IC50 [11]: 37.4 µM; IC50 [12]: 37.4 µM; IC50 [13]: 37.4 µM
